Reference: US6525001B1, “Substituted pyrimidine and pyridine herbicides” (Mid-American Commercialization Corporation, priority 1997, dated 2003)

Legend:
Assay type in all cases: in vivo
Set-up in all cases: key: 0 is no effect; 10 is complete control
[1] = tested on: crabgrass (Digitaria sanguinalis); experiment: Test B pre-/postemergence
How it was run: (§1)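 Seeds were planted and sprayed preemergence, while plants at 2 to 18 cm (1- to 4-leaf stage) were sprayed postemergence at the same time, with test chemical in a non-phytotoxic solvent mixture containing surfactant. After twelve to sixteen days in a greenhouse, injury was rated visually against untreated controls on a 0–10 scale.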

[2] = tested on: blackgrass (Alopecurus myosuroides); experiment: Test B pre-/postemergence
How it was run: as §1

[3] = tested on: pigweed (Amaranthus retroflexus); experiment: Test B pre-/postemergence
How it was run: as §1

[4] = tested on: purple nutsedge (Cyperus rotundus); experiment: Test B pre-/postemergence; settings: Rate 62 g/ha
How it was run: as §1

[5] = tested on: wild oat (Avena fatua); experiment: Test B pre-/postemergence
How it was run: as §1

[6] = tested on: velvetleaf (Abutilon theophrasti); experiment: Test B pre-/postemergence
How it was run: as §1

[7] = tested on: sugar beet (Beta vulgaris); experiment: Test B pre-/postemergence
How it was run: as §1

[8] = tested on: wheat (Triticum aestivum); experiment: Test B pre-/postemergence
How it was run: as §1

[9] = tested on: giant foxtail (Setaria faberii); experiment: Test B pre-/postemergence
How it was run: as §1

[10] = tested on: corn (Zea mays); experiment: Test B pre-/postemergence
How it was run: as §1

[11] = tested on: soybean (Glycine max); experiment: Test B pre-/postemergence
How it was run: as §1

[12] = tested on: bedstraw (Galium aparine); experiment: Test B pre-/postemergence; settings: Postemergence
How it was run: as §1

[13] = tested on: broadleaf signalgrass (Brachiaria decumbens); experiment: Test B pre-/postemergence
How it was run: as §1

[14] = tested on: momingglory (Ipomoea hederacea); experiment: Test B pre-/postemergence
How it was run: as §1

[15] = tested on: rape (Brassica napus); experiment: Test B pre-/postemergence
How it was run: as §1

[16] = tested on: cocklebur (Xanthium strumarium); experiment: Test B pre-/postemergence
How it was run: as §1

[17] = tested on: rice (Oryza sativa); experiment: Test B flood test
How it was run: (§2)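 Plants were grown to the 2-leaf stage before treatment with test chemical, then held in a greenhouse for twelve to sixteen days. Injury was visually rated against untreated controls on a 0–10 scale, where 0 is no effect and 10 is complete control.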

[18] = tested on: smallflower flatsedge (Cyperus difformis); experiment: Test B flood test
How it was run: as §2

[19] = tested on: duck salad (Heteranthera limosa); experiment: Test B flood test
How it was run: as §2

[20] = tested on: bamyardgrass (Echinochloa crus-galli); experiment: Test B flood test
How it was run: as §2

[21] = Preemergence, Rate 62 g/ha, scale of 0 to 10
[22] = Rate 62 g/ha, Postemergence (flood test)
[23] = Rate 125 g/ha, Postemergence section (flood test species)
[24] = Rate 250 g/ha, Postemergence (flood test species)

## O=C(c1cccc(C(F)(F)F)c1)c1ccnc(-c2ccc(C(F)(F)F)cc2)n1 [Compound 77]
[1]; [21]
  Plant response rating, Crabgrass: 0
[1]; Rate 62 g/ha, Postemergence
  Crabgrass plant response rating: 0
[1]; Rate 125 g/ha, Postemergence
  Crabgrass plant response rating: 2
[1]; Rate 125 g/ha, Preemergence
  Plant response rating, Crabgrass: 0
[1]; Rate 250 g/ha, Postemergence
  Plant response rating, Crabgrass: 2
[1]; Rate 250 g/ha, Preemergence
  Plant response rating, Crabgrass: 1
[2]; [21]
  Plant response rating, Blackgrass: 0
[2]; Rate 62 g/ha, Postemergence
  Blackgrass plant response rating: 0
[2]; Rate 125 g/ha, Postemergence
  Blackgrass plant response rating: 0
[2]; Rate 125 g/ha, Preemergence
  Plant response rating, Blackgrass: 0
[2]; Rate 250 g/ha, Postemergence
  Plant response rating, Blackgrass: 2
[2]; Rate 250 g/ha, Preemergence
  Plant response rating, Blackgrass: 0
[3]; [21]
  Plant response rating, Redroot pigweed: 0
[3]; Rate 62 g/ha, Postemergence
  Redroot pigweed plant response rating: 2
[3]; Rate 125 g/ha, Postemergence
  Redroot pigweed plant response rating: 2
[3]; Rate 125 g/ha, Preemergence
  Plant response rating, Redroot pigweed: 0
[3]; Rate 250 g/ha, Postemergence
  Plant response rating, Redroot pigweed: 3
[3]; Rate 250 g/ha, Preemergence
  Plant response rating, Redroot pigweed: 0
[4]; Preemergence, scale of 0 to 10
  Plant response rating, Nutsedge: 0
[4]; Postemergence
  Nutsedge plant response rating: 0
[5]; [21]
  Plant response rating, Wild oats: 0
[5]; Rate 62 g/ha, Postemergence
  Wild oats plant response rating: 0
[5]; Rate 125 g/ha, Postemergence
  Wild oats plant response rating: 0
[5]; Rate 125 g/ha, Preemergence
  Plant response rating, Wild oats: 0
[5]; Rate 250 g/ha, Postemergence
  Plant response rating, Wild oats: 1
[5]; Rate 250 g/ha, Preemergence
  Plant response rating, Wild oats: 0
[6]; [21]
  Plant response rating, Velvetleaf: 0
[6]; Rate 62 g/ha, Postemergence
  Velvetleaf plant response rating: 1
[6]; Rate 125 g/ha, Postemergence
  Velvetleaf plant response rating: 1
[6]; Rate 125 g/ha, Preemergence
  Plant response rating, Velvetleaf: 0
[6]; Rate 250 g/ha, Postemergence
  Plant response rating, Velvetleaf: 1
[6]; Rate 250 g/ha, Preemergence
  Plant response rating, Velvetleaf: 3
[7]; [21]
  Plant response rating, Sugarbeets: 0
[7]; Rate 62 g/ha, Postemergence
  Sugarbeets plant response rating: 1
[7]; Rate 125 g/ha, Postemergence
  Sugarbeets plant response rating: 1
[7]; Rate 125 g/ha, Preemergence
  Plant response rating, Sugarbeets: 0
[7]; Rate 250 g/ha, Postemergence
  Plant response rating, Sugarbeets: 3
[7]; Rate 250 g/ha, Preemergence
  Plant response rating, Sugarbeets: 0
[8]; [21]
  Plant response rating, Wheat: 0
[8]; Rate 62 g/ha, Postemergence
  Wheat plant response rating: 0
[8]; Rate 125 g/ha, Postemergence
  Wheat plant response rating: 0
[8]; Rate 125 g/ha, Preemergence
  Plant response rating, Wheat: 0
[8]; Rate 250 g/ha, Postemergence
  Plant response rating, Wheat: 0
[8]; Rate 250 g/ha, Preemergence
  Plant response rating, Wheat: 0
[9]; [21]
  Plant response rating, Giant foxtail: 0
[9]; Rate 62 g/ha, Postemergence
  Giant foxtail plant response rating: 0
[9]; Rate 125 g/ha, Postemergence
  Giant foxtail plant response rating: 1
[9]; Rate 125 g/ha, Preemergence
  Plant response rating, Giant foxtail: 0
[9]; Rate 250 g/ha, Postemergence
  Plant response rating, Giant foxtail: 1
[9]; Rate 250 g/ha, Preemergence
  Plant response rating, Giant foxtail: 1
[10]; [21]
  Plant response rating, Corn: 0
[10]; Rate 62 g/ha, Postemergence
  Corn plant response rating: 1
[10]; Rate 125 g/ha, Postemergence
  Corn plant response rating: 1
[10]; Rate 125 g/ha, Preemergence
  Plant response rating, Corn: 0
[10]; Rate 250 g/ha, Postemergence
  Plant response rating, Corn: 1
[10]; Rate 250 g/ha, Preemergence
  Plant response rating, Corn: 0
[11]; [21]
  Plant response rating, Soybean: 0
[11]; Rate 62 g/ha, Postemergence
  Soybean plant response rating: 0
[11]; Rate 125 g/ha, Postemergence
  Soybean plant response rating: 1
[11]; Rate 125 g/ha, Preemergence
  Plant response rating, Soybean: 0
[11]; Rate 250 g/ha, Postemergence
  Plant response rating, Soybean: 1
[11]; Rate 250 g/ha, Preemergence
  Plant response rating, Soybean: 0
[12]; Rate 62 g/ha
  Bedstraw plant response rating: 1
[12]; Rate 125 g/ha
  Bedstraw plant response rating: 1
[12]; Rate 250 g/ha
  Plant response rating, Bedstraw: 4
[13]; Rate 62 g/ha, Postemergence
  B. signalgrass plant response rating: 0
[13]; Rate 62 g/ha, Preemergence
  B. signalgrass plant response rating: 0
[13]; Rate 125 g/ha, Postemergence
  B. signalgrass plant response rating: 0
[13]; Rate 125 g/ha, Preemergence
  Plant response rating, B. signalgrass: 0
[13]; Rate 250 g/ha, Postemergence
  Plant response rating, B. signalgrass: 1
[13]; Rate 250 g/ha, Preemergence
  Plant response rating, B. signalgrass: 0
[14]; [21]
  Plant response rating, Morningglory: 0
[14]; Rate 62 g/ha, Postemergence
  Morningglory plant response rating: 2
[14]; Rate 125 g/ha, Postemergence
  Morningglory plant response rating: 4
[14]; Rate 125 g/ha, Preemergence
  Plant response rating, Morningglory: 0
[14]; Rate 250 g/ha, Postemergence
  Plant response rating, Morningglory: 4
[14]; Rate 250 g/ha, Preemergence
  Plant response rating, Morningglory: 1
[15]; [21]
  Plant response rating, Rape: 0
[15]; Rate 62 g/ha, Postemergence
  Rape plant response rating: 1
[15]; Rate 125 g/ha, Postemergence
  Rape plant response rating: 1
[15]; Rate 125 g/ha, Preemergence
  Plant response rating, Rape: 0
[15]; Rate 250 g/ha, Postemergence
  Plant response rating, Rape: 2
[15]; Rate 250 g/ha, Preemergence
  Plant response rating, Rape: 0
[16]; [21]
  Plant response rating, Cocklebur: 0
[16]; Rate 62 g/ha, Postemergence
  Cocklebur plant response rating: 1
[16]; Rate 125 g/ha, Postemergence
  Cocklebur plant response rating: 3
[16]; Rate 125 g/ha, Preemergence
  Plant response rating, Cocklebur: 0
[16]; Rate 250 g/ha, Postemergence
  Plant response rating, Cocklebur: 3
[16]; Rate 250 g/ha, Preemergence
  Plant response rating, Cocklebur: 0
[17]; [22]
  Rice plant response rating: 0
[17]; [23]
  Rice plant response rating: 0
[17]; [24]
  Plant response rating, Rice: 0
[18]; [22]
  S. Flatsedge plant response rating: 0
[18]; [23]
  S. Flatsedge plant response rating: 0
[18]; [24]
  Plant response rating, S. Flatsedge: 0
[19]; [22]
  Ducksalad plant response rating: 0
[19]; [23]
  Ducksalad plant response rating: 0
[19]; [24]
  Plant response rating, Ducksalad: 0
[20]; [22]
  Barnyardgrass plant response rating: 0
[20]; [23]
  Barnyardgrass plant response rating: 0
[20]; [24]
  Plant response rating, Barnyardgrass: 0
